Measured values taken from patent publication US5639766A, “N-substituted azaheterocyclic carboxylic acids and esters thereof” (Novo Nordisk A/S, priority 1993, dated 1997).
Where a name gives a salt, the structure may show the parent alone.

Experiments:
[1] = background statement; cited from earlier work
[2] = tested on: GABA uptake from the synaptic cleft into presynaptic nerve terminals and glial cells; details: background statement; cited from earlier work
[^3 H]-GABA uptake = In vitro inhibition of [^3 H]-GABA uptake in rat cortical tissue; format: biochemical, Male wistar rat; details: rat cortical tissue homogenate, pH 7.5, 60 minutes at 30° C.
Experimental: Values for in vitro inhibition of [^3 H]-GABA uptake for the invention compounds were assessed essentially by the method of Fjalland (Acta Pharmacol. Toxicol. 1978, 42, 73-76). Male wistar rat cortical tissue was gently homogenized by hand using a glass/PTFE homogenizer in 10 volumes of 0.32M sucrose. Incubation was performed in a 40 mM tris HCl buffer (pH 7.5 at 30° C.) containing […], 4 mM MgSO4, […] and 10 mM glucose, for 60 minutes at 30° C. Values for inhibition of GABA uptake for some representative compounds are recorded in Table I.

GABA uptake = details: oral; Yunger, L. M. et al., 1984; cited from earlier work

Compound | IC50 ([^3 H]-GABA uptake) [nM] | orally active inhibitors of GABA uptake (GABA uptake) | also measured
O=C(O)C1CCCNC1 (centres unmarked) [3-piperidinecarboxylic acid] | – | – | cross the blood-brain barrier [1]: unable to cross the blood-brain barrier; inhibitor of GABA uptake [2]: well-known and potent inhibitor of GABA uptake
(R)-1-(2-(((2-(Benzylidene)cyclohexylidene)amino)oxy)ethyl)-3-piperidinecarboxylic acid hydrochloride [Example 3] | 9500 | – | –
O=C(O)[C@@H]1CCCN(CCON=C2c3ccccc3CCC2c2ccccc2)C1 (stereo partly drawn) [Example 4, (R)-1-(2-(((2-Phenyl-1,2,3,4-tetrahydro-1-naphthylidene)amino)oxy)ethyl)-3-piperidinecarboxylic acid hydrochloride] | 819 | – | –
O=C(O)CC1CCN(CCC=C(c2ccccc2)c2ccccc2)C1 (stereo not drawn) [SK&F 100561, N-(4,4-diphenyl-3-buten-1-yl)-homo-β-proline] | – | orally active inhibitors of GABA uptake | –
O=C(O)C1CCCN(CCC=C(c2ccccc2)c2cccs2)C1 (centres unmarked) [SK&F 100604J, N-(4-phenyl-4-(2-thienyl)-3-buten-1-yl)nipecotic acid] | – | orally active inhibitors of GABA uptake | –
O=C(O)[C@@H]1CCCN(CCON=C2CCCC=C2c2ccccc2)C1 [Example 2, (R)-1-(2-(((2-Phenylcyclohex-2-enylidene)amino)oxy)ethyl)-3-piperidinecarboxylic acid hydrochloride] | 417 | – | –
O=C(O)C1CCCN(CCC=C(c2ccccc2)c2ccccc2)C1 (centres unmarked) [SK&F 89976A, N-(4,4-diphenyl-3-buten-1-yl)nipecotic acid] | – | orally active inhibitors of GABA uptake | –
O=C(O)[C@@H]1CCCN(CCON=C2CCCCC2c2ccccc2)C1 (stereo partly drawn) [Example 1, (R)-1-(2-(((2-Phenylcyclohexylidene)amino)oxy)ethyl)-3-piperidinecarboxylicacid hydrochloride] | 332 | – | –
O=C(O)[C@@H]1CCCN(CCON=C2CC(c3ccccc3)c3ccccc32)C1 (stereo partly drawn) [Example 5, (R)-1-(2-(((3-Phenyl-1-indanylidene)amino)oxy)ethyl)-3-piperidinecarboxylicacid hydrochloride] | 1380 | – | –
O=C(O)C1=CCCN(CCC=C(c2ccccc2)c2ccccc2)C1 [SK&F 100330A, N-(4,4-diphenyl-3-buten-1-yl)guvacine] | – | orally active inhibitors of GABA uptake | –
